The text below walks through data of patent US10343992B2, “1-cyano-pyrrolidine compounds as USP30 inhibitors” (MISSION THERAPEUTICS LIMITED, priority 2015, dated 2019).

Sequence of USP30 (Q70CQ3 57-517): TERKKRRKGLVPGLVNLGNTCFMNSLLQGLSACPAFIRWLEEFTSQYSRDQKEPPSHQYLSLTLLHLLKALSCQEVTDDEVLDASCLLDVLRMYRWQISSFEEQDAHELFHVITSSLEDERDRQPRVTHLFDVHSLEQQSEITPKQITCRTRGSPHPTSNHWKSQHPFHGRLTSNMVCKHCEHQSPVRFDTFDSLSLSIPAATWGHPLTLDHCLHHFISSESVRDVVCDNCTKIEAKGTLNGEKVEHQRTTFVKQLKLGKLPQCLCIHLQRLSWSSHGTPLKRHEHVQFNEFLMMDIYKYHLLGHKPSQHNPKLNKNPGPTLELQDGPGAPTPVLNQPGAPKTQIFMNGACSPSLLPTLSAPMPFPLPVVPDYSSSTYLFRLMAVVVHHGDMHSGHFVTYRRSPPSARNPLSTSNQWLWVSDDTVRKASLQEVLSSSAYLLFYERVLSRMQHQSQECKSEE

This test concerns the target USP30 (Homo sapiens (Human), UniProt Q70CQ3). The experiment in a line: USP30 biochemical FP or FI IC50 assay. The note with it: read-out: IC50 range. The method, then:
USP30 Biochemical IC50 Assay
Dilution plates were prepared at 21 times the final concentration (2100 μM for a final concentration of 100 μM) in 50% DMSO in a 96-well polypropylene V-bottom plate (Greiner #651201). A typical 8-point dilution series would be 100, 30, 10, 3, 1, 0.3, 0.1, 0.03 μM final. Reactions were performed in duplicate in black 384 well plates (small volume, Greiner 784076) in a final reaction volume of 21 μl. Either 1 μl of 50% DMSO or diluted compound was added to the plate. USP30 was diluted in reaction buffer (40 mM Tris, pH 7.5, 0.005% Tween 20, 0.5 mg/ml BSA, 5 mM—beta-mercaptoethanol) to the equivalent of 0.05 μl/well and 10 μl of diluted USP30 was added to the compound. Enzyme and compound were incubated for 30 min at room temp. Reactions were initiated by the addition of 50 nM of TAMRA labelled peptide linked to ubiquitin via an iso-peptide bond as fluorescence polarisation substrate. Reactions were read immediately after addition of substrate and following a 2 hr incubation at room temperature. Readings were performed on a Pherastar Plus (BMG Labtech). λ Excitation 540 nm; λ Emission 590 nm.
USP30 Biochemical Fluorescence Intensity IC50 Assay
Dilution plates were prepared at 21 times the final concentration (2100 μM for a final concentration of 100 μM) in 50% DMSO in a 96-well polypropylene V-bottom plate (Greiner #651201). A typical 8-point dilution series would be 100, 30, 10, 3, 1, 0.3, 0.1, 0.03 μM final. Reactions were performed in duplicate in black 384 well plates (small volume, Greiner 784076) in a final reaction volume of 21 μl.
Either 1 μl of 50% DMSO or diluted compound was added to the plate. USP30 was diluted in reaction buffer (40 mM Tris, pH 7.5, 0.005% Tween 20, 0.5 mg/ml BSA, 5 mM—beta-mercaptoethanol) to the equivalent of 0.001 μl/well and 10 μl of diluted USP30 was added to the compound. Enzyme and compound were incubated for 30 min at room temp. Reactions were initiated by the addition of Ubiquitin-Rhodamine 110 (U-555; Boston Biochem) at a final concentration of 100 nM. Reactions were read immediately after addition of substrate and following a 2 h incubation at room temperature. Readings were performed on a Pherastar Plus (BMG Labtech). λ Excitation 487 nm; λ Emission 535 nm.
The term IC50 denotes the concentration that gives 50% inhibition. As to `Cn1cc(-c2ccc(C(=O)N[C@@H]3CCN(C#N)C3)cc2)cn1` [Example 44, (R)-N-(1-cyanopyrrolidin-3-yl)-4-(1-methyl-1H-pyrazol-4-yl)benzamide], the IC50 is less than 100 nM.

As for `CN(C(=O)Nc1ccc(C(F)(F)F)cc1)[C@@H]1CCN(C#N)C1` [Example 195, (R)-1-(1-cyanopyrrolidin-3-yl)-1-methyl-3-(4-(trifluoromethyl)phenyl)urea], the IC50 was in the range of 100 to 1000 nM. In the case of `Cc1nn(C)cc1-c1cnc(C(=O)N[C@@H]2CCN(C#N)C2)c(F)c1` [Example 122, (R)-N-(1-cyanopyrrolidin-3-yl)-5-(1,3-dimethyl-1H-pyrazol-4-yl)-3-fluoropicolinamide] it was 100 to 1000 nM; in that of `N#CN1CCC(NC(=O)c2ccc(N3CCCC3c3cccnc3)nc2)C1` (racemic) [Example 21, N-(1-cyanopyrrolidin-3-yl)-6-(2-(pyridin-3-yl)pyrrolidin-1-yl)nicotinamide], 1000 to 10000 nM; in that of `Cc1cc(C(=O)N[C@@H]2CCN(C#N)C2)nn1Cc1ccccn1` [Example 151, (R)-N-(1-cyanopyrrolidin-3-yl)-5-methyl-1-(pyridin-2-ylmethyl)-1H-pyrazole-3-carboxamide], 100 to 1000 nM. In the case of `N#CN1C[C@H]2CCN(C(=O)Nc3ccc(C(F)(F)F)cc3)[C@H]2C1` [Example 203, (3aR,6aR)-5-cyano-N-(4-(trifluoromethyl)-phenyl)-hexahydropyrrolo[3,4-b]pyrrole-1(2H)-carboxamide] it was less than 100 nM; in that of `N#CN1CCC(NC(=O)Nc2ccc(Cl)cc2Cl)C1` (stereo not drawn) [Example 251, 1-(1-cyanopyrrolidin-3-yl)-3-(2,4-dichlorophenyl)urea], 100 to 1000 nM; in that of `Cn1cc(-c2ccc(C(=O)N[C@@H]3CCN(C#N)C3)nc2)cn1` [Example 106, (R)-N-(1-cyanopyrrolidin-3-yl)-5-(1-methyl-1H-pyrazol-4-yl)picolinamide], 100 to 1000 nM. The figure for `CN(C(=O)Nc1ccc(C(F)(F)F)nc1)[C@@H]1CCN(C#N)C1` [Example 266, (R)-1-(1-cyanopyrrolidin-3-yl)-1-methyl-3-(6-(trifluoromethyl)pyridin-3-yl)urea] is 100 to 1000 nM; for `N#CN1CC[C@@H](NC(=O)c2ccc(-c3cnc4nccn4c3)cc2F)C1` [Example 109, (R)-N-(1-cyanopyrrolidin-3-yl)-2-fluoro-4-(imidazo[1,2-a]pyrimidin-6-yl)benzamide] it is 100 to 1000 nM. For the compound `Cc1nn(C)cc1-c1ccc2nc(C(=O)N[C@@H]3CCN(C#N)C3)c(F)n2c1` [Example 170, (R)-N-(1-cyanopyrrolidin-3-yl)-6-(1,3-dimethyl-1H-pyrazol-4-yl)-3-fluoroimidazo[1,2-a]pyridine-2-carboxamide], the IC50 was 100 to 1000 nM. The figure for `Cc1noc(C)c1-c1ccc2c(C(=O)N[C@@H]3CCN(C#N)C3)nn(CC(C)C)c2c1` [Example 154, (R)-N-(1-cyanopyrrolidin-3-yl)-6-(3,5-dimethylisoxazol-4-yl)-1-isobutyl-1H-indazole-3-carboxamide] is less than 100 nM. For `N#Cc1cccc(-c2ccc3nc(C(=O)N[C@@H]4CCN(C#N)C4)c(F)n3c2)c1` [Example 167, (R)-6-(3-cyanophenyl)-N-(1-cyanopyrrolidin-3-yl)-3-fluoroimidazo[1,2-a]pyridine-2-carboxamide], the IC50 is less than 100 nM. `Cc1nn(C)cc1-c1ccc2cc(C(=O)N[C@@H]3CCN(C#N)C3)[nH]c2c1` [Example 129, (R)-N-(1-cyanopyrrolidin-3-yl)-6-(1,3-dimethyl-1H-pyrazol-4-yl)-1H-indole-2-carboxamide]: the IC50 is less than 100 nM. In the case of `CCn1cc(-c2ccc3nc(C(=O)N[C@@H]4CCN(C#N)C4)c(F)n3c2)cn1` [Example 169, (R)-N-(1-cyanopyrrolidin-3-yl)-6-(1-ethyl-1H-pyrazol-4-yl)-3-fluoroimidazo[1,2-a]pyridine-2-carboxamide] it was 100 to 1000 nM; in that of `N#CN1CC[C@@H](NC(=O)c2ncc(-c3ccccc3)cn2)C1` [Example 63, (R)—N-(1-cyanopyrrolidin-3-yl)-5-phenylpyrimidine-2-carboxamide], 100 to 1000 nM.

As to `N#CN1CC[C@@H](NC(=O)c2cnc3cc(N4CCOCC4)ccn23)C1` [Example 166, (R)-N-(1-cyanopyrrolidin-3-yl)-7-morpholinoimidazo[1,2-a]pyridine-3-carboxamide], the IC50 was in the range of 100 to 1000 nM. For the compound `COc1ccc(-c2cc(C(=O)N[C@@H]3CCN(C#N)C3)on2)cc1OC` [Example 220, (R)-N-(1-cyanopyrrolidin-3-yl)-3-(3,4-dimethoxyphenyl)isoxazole-5-carboxamide], the IC50 was in the range of 100 to 1000 nM. The figure for `COCCn1cc(-c2ccc(C(=O)N[C@@H]3CCN(C#N)C3)c(F)c2)cn1` [Example 82, (R)-N-(1-cyanopyrrolidin-3-yl)-2-fluoro-4-(1-(2-methoxyethyl)-1H-pyrazol-4-yl)benzamide] is 100 to 1000 nM. As for `CN(C(=O)Nc1ccc(Cl)cn1)[C@@H]1CCN(C#N)C1` [Example 267, (R)-3-(5-chloropyridin-2-yl)-1-(1-cyanopyrrolidin-3-yl)-1-methylurea], the concentration for half-maximal inhibition (IC50) lay in the range of 100 to 1000 nM. The figure for `N#CN1C[C@H]2CCN(C(=O)Nc3cc(C(F)(F)F)ccc3F)[C@H]2C1` [Example 201, (3aR,6aR)-5-cyano-N-(2-fluoro-5-(trifluoromethyl)phenyl)hexahydro-pyrrolo[3,4-b]pyrrole-1(2H)-carboxamide] is less than 100 nM; for `Cc1cn(-c2ccc(C(=O)N[C@@H]3CCN(C#N)C3)c(F)c2)cn1` [Example 75, (R)—N-(1-cyanopyrrolidin-3-yl)-2-fluoro-4-(4-methyl-1H-imidazol-1-yl)benzamide] it is 100 to 1000 nM. The figure for `N#CN1CC[C@@H](NC(=O)N2CCCN(Cc3c(F)cccc3Cl)CC2)C1` [Example 137, (R)-4-(2-chloro-6-fluorobenzyl)-N-(1-cyanopyrrolidin-3-yl)-1,4-diazepane-1-carboxamide] is 100 to 1000 nM; for `Cn1cc(-c2ccc(C(=O)N[C@@H]3CCN(C#N)C3)c(F)c2)cn1` [Example 77, (R)-N-(1-cyanopyrrolidin-3-yl)-2-fluoro-4-(1-methyl-1H-pyrazol-4-yl)benzamide] it is less than 100 nM; for `N#CN1CCC(NC(=O)c2cc(-c3ccccc3)nc3ccccc23)C1` (racemic) [Example 17, N-(1-cyanopyrrolidin-3-yl)-2-phenylquinoline-4-carboxamide] it is 1000 to 10000 nM. For the compound `N#CN1CC[C@@H](NC(=O)c2cc(-c3ccccc3)no2)C1` [Example 33, (R)-N-(1-cyanopyrrolidin-3-yl)-3-phenylisoxazole-5-carboxamide], the IC50 fell in the range of 100 to 1000 nM. The figure for `N#CN1CC[C@@H](NC(=O)c2ccc(-c3ccnc(N4CCOCC4)c3)cc2F)C1` [Example 119, (R)-N-(1-cyanopyrrolidin-3-yl)-2-fluoro-4-(2-morpholinopyridin-4-yl)benzamide] is less than 100 nM; for `CCn1cc(-c2ccc(C(=O)N[C@@H]3CCN(C#N)C3)c(F)c2)cn1` [Example 81, (R)-N-(1-cyanopyrrolidin-3-yl)-4-(1-ethyl-1H-pyrazol-4-yl)-2-fluorobenzamide] it is less than 100 nM. In the case of `Cn1cc(-c2cnc(C(=O)N[C@@H]3CCN(C#N)C3)nc2)cn1` [Example 45, (R)-N-(1-cyanopyrrolidin-3-yl)-5-(1-methyl-1H-pyrazol-4-yl)pyrimidine-2-carboxamide] it was 100 to 1000 nM; in that of `N#CN1CC[C@@H](NC(=O)c2ccnc(N3CCc4ccccc4C3)c2)C1` [Example 74, (R)—N-(1-cyanopyrrolidin-3-yl)-2-(3,4-dihydroisoquinolin-2(1H)-yl)isonicotinamide], 100 to 1000 nM. The figure for `Cn1cc(-c2ccc3cc(C(=O)N[C@@H]4CCN(C#N)C4)[nH]c3c2)cn1` [Example 84, (R)-N-(1-cyanopyrrolidin-3-yl)-6-(1-methyl-1H-pyrazol-4-yl)-1H-indole-2-carboxamide] is 100 to 1000 nM. Take `N#CN1C[C@H]2CCN(C(=O)c3cccc(-c4ccccc4)c3)[C@H]2C1` (racemic) [Example 51, rac-(3aR,6aR)-1-([1,1′-biphenyl]-3-carbonyl)hexahydropyrrolo[3,4-b]pyrrole-5(1H)-carbonitrile]: the IC50 is less than 100 nM. In the case of `Cc1cn(-c2ccc(C(=O)N[C@@H]3CCN(C#N)C3)cc2F)cn1` [Example 223, (R)-N-(1-cyanopyrrolidin-3-yl)-3-fluoro-4-(4-methyl-1H-imidazol-1-yl)benzamide] it was less than 100 nM.
